Measurements reported in BindingDB's records for doi:10.1021/acs.jmedchem.8b01224 (Helmholtz Zentrum M?nchen, 2018).

Key:
[1] = target: T1, Tyrosine-protein phosphatase non-receptor type 1 (Homo sapiens, UniProt P18031); assay: (§1) Binding affinity to human N-terminal His6-tagged PTP1B catalytic domain (1 to 298 residues) expressed in Escherichia coli strain Rosetta2 (DE3) assessed as dissociation rate constant using DiFMUP as substrate preincubated for 10 mins followed by substrate addition measured for 10 mins fluorescence assay
T1 sequence (P18031 whole entry): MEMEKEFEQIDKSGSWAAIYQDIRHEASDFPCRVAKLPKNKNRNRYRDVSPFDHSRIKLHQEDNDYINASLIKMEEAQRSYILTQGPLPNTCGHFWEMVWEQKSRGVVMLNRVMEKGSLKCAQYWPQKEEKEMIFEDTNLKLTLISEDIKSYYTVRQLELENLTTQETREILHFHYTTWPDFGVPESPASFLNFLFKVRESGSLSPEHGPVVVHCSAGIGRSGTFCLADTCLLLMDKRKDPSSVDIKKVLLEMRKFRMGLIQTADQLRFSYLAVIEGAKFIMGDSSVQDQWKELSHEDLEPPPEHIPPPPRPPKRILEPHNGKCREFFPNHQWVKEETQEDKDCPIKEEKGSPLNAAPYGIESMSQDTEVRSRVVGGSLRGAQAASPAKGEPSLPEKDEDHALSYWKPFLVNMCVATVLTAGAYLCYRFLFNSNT

[2] = target: T1, Tyrosine-protein phosphatase non-receptor type 1; assay: as §1, with “association” for “dissociation”

C=c1c(O)c(O)cc2c1=CC=C1[C@@]2(C)CC[C@@]2(C)[C@@H]3C[C@](C)(C(=O)O)CC[C@]3(C)CC[C@]12C
koff [1]: 0.000362 s⁻¹
kon [2]: 59 M⁻¹ s⁻¹
